This passage reports pest or weed control results from patent US9549555B2, “Macrocyclic picolinamide compounds with fungicidal activity” (DOW AGROSCIENCES LLC, priority 2013, dated 2017).

Like-named read-outs stand apart in the source and are kept apart here.

What all share (format): in vivo
Experiment [1] deals with Rhyncosporium secalis. The experiment in a line: Barley scald (RHYNSE), percent disease control. As to conditions: 24 h, 1 Day Protectant, read-out: Disease control RHYNSE 1DP. How it is done: Technical grades of materials were dissolved in acetone, which were then mixed with nine volumes of water containing 110 ppm Triton X-100. The fungicide solutions were applied onto wheat seedlings using an automated booth sprayer to run-off. All sprayed plants were allowed to air dry prior to further handling. All fungicides were evaluated using the aforementioned method for their activity vs. all target diseases. Wheat leaf blotch and brown rust activity were also evaluated using track spray applications, in which case the fungicides were formulated as EC formulations, containing 0.1% Trycol 5941 in the spray solutions. Wheat plants (variety Yuma) were grown from seed in a greenhouse in 50% mineral soil/50% soil-less Metro mix until the first leaf was fully emerged, with 7-10 seedlings per pot. These plants were inoculated with an aqueous spore suspension of Septoria tritici either prior to or after fungicide treatments. After inoculation the plants were kept in 100% relative humidity (one day in a dark dew chamber followed by two to three days in a lighted dew chamber at 20° C.) to permit spores to germinate and infect the leaf. The plants were then transferred to a greenhouse set at 20° C. for disease to develop. When disease symptoms were fully expressed on the 1st leaves of untreated plants, infection levels were assessed on a scale of 0 to 100 percent disease severity. Percent disease control was calculated using the ratio of disease severity on treated plants relative to untreated plants. Evaluation of Fungicidal Activity: Barley Scald (Rhyncosporium secalis; Bayer Code […]) Barley seedlings (variety Harrington) were propagated in soil-less Metro mix, with each pot having 8 to 12 plants, and used in the test when first leaf was fully emerged. Test plants were inoculated by an aqueous spore suspension of Rhyncosporium secalis 24 hr after fungicide treatments. After inoculation the plants were kept in a dew room at 20° C. with 100% relative humidity for 48 hr. The plants were then transferred to a greenhouse set at 20° C. for disease to develop. Fungicide formulation, application and disease assessment on the sprayed leaves followed the procedures as described in the Example A.

Experiment [2] has as its system Puccinia triticina. The experiment in a line: Wheat brown rust (PUCCRT), percent disease control on wheat seedlings. To be noted: rate 100 ppm.
Experiment [3] deals with Mycosphaerella graminicola; Anamorph: Septoria tritici. The experiment in a line: Leaf blotch of wheat (SEPTTR), percent disease control on wheat seedlings. As to conditions: Zymoseptoria tritici, rate 100 ppm. Here is the method: Evaluation of Fungicidal Activity: Leaf Blotch of Wheat (Mycosphaerella graminicola; Anamorph: Septoria tritici; Bayer Code […]) Technical grades of materials were dissolved in acetone, which were then mixed with nine volumes of water containing 110 ppm Triton X-100. The fungicide solutions were applied onto wheat seedlings using an automated booth sprayer to run-off. All sprayed plants were allowed to air dry prior to further handling. All fungicides were evaluated using the aforementioned method for their activity vs. all target diseases. Wheat leaf blotch and brown rust activity were also evaluated using track spray applications, in which case the fungicides were formulated as EC formulations, containing 0.1% Trycol 5941 in the spray solutions. Wheat plants (variety Yuma) were grown from seed in a greenhouse in 50% mineral soil/50% soil-less Metro mix until the first leaf was fully emerged, with 7-10 seedlings per pot. These plants were inoculated with an aqueous spore suspension of Septoria tritici either prior to or after fungicide treatments. […] When disease symptoms were fully expressed on the 1st leaves of untreated plants, infection levels were assessed on a scale of 0 to 100 percent disease severity. Percent disease control was calculated using the ratio of disease severity on treated plants relative to untreated plants.

On to `CCCO[C@H]1CCC[C@H](NC(=O)c2nccc(OC)c2OCOC(C)=O)C(=O)O[C@@H](C)[C@@H]1CCC(C)C` [Compound 25, ((2-(((3S,7S,8S,9S)-8-isopentyl-9-methyl-2-oxo-7-propoxyoxonan-3-yl)carbamoyl)-4-methoxypyridin-3-yl)oxy)methyl acetate], for which the pest or weed control at 100 ppm in experiment [1] is greater than 70%.
Regarding `CCCC[C@H]1[C@H](C)OC(=O)[C@@H](NC(=O)c2nccc(OC)c2OCOC(C)=O)CCC[C@@H]1Oc1ccccc1` [Compound 33], in experiment [1], the pest or weed control at 100 ppm is greater than 70%.
Turning to `COc1ccnc(C(=O)N[C@H]2CCC[C@H](Oc3ccccc3)[C@@H](CCC(C)C)[C@H](C)OC2=O)c1OC(C)=O` [Compound 36], in experiment [1], the pest or weed control at 100 ppm was greater than 70%.
The same measure, in the same setting: next, `COc1ccnc(C(=O)N[C@H]2CCC[C@H](Oc3ccccc3)[C@@H](CCC(C)C)[C@H](C)OC2=O)c1OCOC(C)=O` [Compound 40]: greater than 70%; `COc1ccnc(C(=O)N[C@H]2CCC[C@H](OCC3CC3)[C@@H](Cc3ccc(F)cc3)[C@H](C)OC2=O)c1OCOC(C)=O` [Compound 61]: greater than 70%.
In the case of `COc1ccnc(C(=O)N[C@H]2CCC[C@H](OCC(C)C)[C@@H](Cc3ccccc3)[C@H](C)OC2=O)c1O` [Compound 62], the pest or weed control at 100 ppm is greater than 70% in experiment [2] (24 h, 1 Day Protectant, read-out: Disease control PUCCRT 1DP); greater than 70% in experiment [2] (72 h, 3 Day Curative, read-out: Disease control PUCCRT 3DC); greater than 70% in experiment [3] (24 h, 1 Day Protectant, read-out: Disease control SEPTTR 1DP); less than 70% in experiment [3] (72 h, 3 Day Curative, read-out: Disease control SEPTTR 3DC).
Turning to `CCCO[C@H]1CCC[C@H](NC(=O)c2nccc(OC)c2OC(C)=O)C(=O)O[C@@H](C)[C@@H]1Cc1ccccc1` [Compound 70], the pest or weed control at 100 ppm in experiment [1] is greater than 70%.
With `CCCC[C@H]1[C@H](C)OC(=O)[C@@H](NC(=O)c2nccc(OC)c2OCOC(C)=O)CCC[C@@H]1OCC1CC1` [Compound 73], the pest or weed control at 100 ppm in experiment [1] was greater than 70%.
Same read-out and setting: next, `CCCO[C@H]1CCC[C@H](NC(=O)c2nccc(OC)c2OC(C)=O)C(=O)O[C@@H](C)[C@@H]1CCC(C)C` [Compound 74, 2-((3S,7S,8S,9S)-8-isopentyl-9-methyl-2-oxo-7-propoxyoxonan-3-yl)carbamoyl)-4-methoxypyridin-3-yl acetate]: greater than 70%.
